These results are taken from patent US20080021038A1, “Novel Piperidine/8-Azabicyclo [3.2.1.] Octan Derivatives As Modulators Of Chemokine Receptor Ccr5” (priority 2004, published 2008).

A word on the IC50: it is the concentration that gives 50% inhibition.

Sequence of recombinant human CCR5 receptor (P51681 whole entry): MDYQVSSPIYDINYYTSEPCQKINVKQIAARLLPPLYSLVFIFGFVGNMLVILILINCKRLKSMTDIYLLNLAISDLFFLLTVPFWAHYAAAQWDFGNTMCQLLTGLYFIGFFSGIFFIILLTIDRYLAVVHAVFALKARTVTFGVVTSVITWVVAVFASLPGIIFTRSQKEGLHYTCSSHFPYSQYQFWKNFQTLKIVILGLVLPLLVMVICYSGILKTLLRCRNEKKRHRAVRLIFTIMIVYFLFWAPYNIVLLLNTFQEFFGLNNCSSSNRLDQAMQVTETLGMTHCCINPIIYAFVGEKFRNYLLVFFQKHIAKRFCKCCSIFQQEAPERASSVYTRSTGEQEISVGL

This test concerns the target recombinant human CCR5 receptor (Homo sapiens, UniProt P51681). The test is described as follows: MIP-1α radioligand binding assay (scintillation proximity). The settings on record: displacement of 0.1 nM iodinated MIP-1α; membranes from Chinese hamster ovary cells expressing recombinant human CCR5; average if tested more than once. On the procedure: The ability of compounds to inhibit the binding of MIP-1α was assessed by an in vitro radioligand binding assay. Membranes were prepared from Chinese hamster ovary cells which expressed the recombinant human CCR5 receptor. These membranes were incubated with 0.1 nM iodinated MIP-1α, scintillation proximity beads and various concentrations of the compounds of the invention in 96-well plates. The amount of iodinated MIP-1α bound to the receptor was determined by scintillation counting. Competition curves were obtained for compounds and the concentration of compound which displaced 50% of bound iodinated MIP-1α was calculated (IC50).
In Table X the results are presented as Pic50 values. A Pic50 value is the negative log (to base 10) of the IC50 result, so an IC50 of 1 μM (that is 1×10^−6M) gives a Pic50 of 6. If a compound was tested more than once then the data below is an average of the probative tests results.
On the technique in general: In a scintillation proximity assay essentially only radioactivity close to the scintillant gives light.
`CC1(CCS(=O)(=O)c2ccc(S(C)(=O)=O)cc2)CCN(CC[C@H](c2ccc(S(C)(=O)=O)cc2)c2cc(F)cc(F)c2)CC1` [Table I Compound 1, 1-{(3R)-3-(3,5-difluorophenyl)-3-[4-(methylsulfonyl)phenyl]propyl}-4-methyl-4-(2-{[4-(methylsulfonyl)phenyl]sulfonyl}ethyl)piperidine]: the IC50 was 0.251 nM.
In the case of `CC1(CCS(=O)(=O)c2ccc(S(C)(=O)=O)cc2)CCN(CC[C@@H](c2ccccc2)N2CCN(S(C)(=O)=O)CC2)CC1` [Table II Compound 18, 1-{(1S)-3-[4-methyl-4-(2-{[4-(methylsulfonyl)phenyl]sulfonyl}ethyl)piperidin-1-yl]-11-phenylpropyl)-4-(methylsulfonyl)piperazine], the IC50 is 0.631 nM.
The same measure for `CC1(CCS(=O)(=O)c2ccc(S(C)(=O)=O)cc2)CCN(CC[C@@H](c2cc(F)cc(F)c2)N2CCN(S(C)(=O)=O)CC2)CC1` [Table II Compound 19, 1-{(1S)-1-(3,5-difluorophenyl)-3-[4-methyl-4-(2-{[4-(methylsulfonyl)phenyl]sulfonyl}ethyl)piperidin-1-yl]propyl}-4-(methylsulfonyl)piperazine]: 2 nM.
Then `COc1ccc(S(=O)(=O)CCC2(C)CCN(CC[C@@H](c3cc(F)cc(F)c3)N3CCN(S(C)(=O)=O)CC3)CC2)cc1` [Table II Compound 20, 1-[(1S)-1-(3,5-difluorophenyl)-3-(4-{2-[(4-methoxyphenyl)sulfonyl]ethyl}-4-methylpiperidin-1-yl)propyl]-4-(methylsulfonyl)piperazine], with 5.01 nM.
On to `CC1(CCS(=O)(=O)C2CCN(C(=O)OCc3ccccc3)CC2)CCN(CC[C@@H](c2cc(F)cc(F)c2)C2CCN(S(C)(=O)=O)CC2)CC1` [Table VIII Compound 1, benzyl 4-{[2-(1-{(3R)-3-(3,5-difluorophenyl)-3-[1-(methylsulfonyl)piperidin-4-yl]propyl}-4-methylpiperidin-4-yl)ethyl]sulfonyl}piperidine-1-carboxylate], for which the IC50 is 7.94 nM.
Then `CC1(CCS(=O)(=O)C2CCN(S(C)(=O)=O)CC2)CCN(CC[C@@H](c2cc(F)cc(F)c2)C2CCN(S(C)(=O)=O)CC2)CC1` [Table VIII Compound 2, 1-{(3R)-3-(3,5-difluorophenyl)-3-[1-(methylsulfonyl)piperidin-4-yl]propyl}-4-methyl-4-(2-{[1-(methylsulfonyl)piperidin-4-yl]sulfonyl}ethyl)piperidine], with 2 nM.
